# Experimental data from publication PMC8876255 (Bioorganic & medicinal chemistry letters, 2021).
# Columns and labels:
# [1] = test system: MDA-MB-231 cells; experiment: Cancer cell viability assay; format: cell-based
# [2] = test system: UPR markers sXbp1, HSPA5A (BiP), DDIT3 (CHOP) in MDA-MB-231 cells; experiment: UPR / ER stress gene induction by qPCR; format: cell-based; conditions: MDA-MB-231, 6 h, 2 times the EC50, qPCR
SMILES,"inhibitory effect on cell growth ([1]; MDA-MB-231 viability assay, negative control)",additive or synergistic effect with JMS-053 on viability ([1]; addition of 20–60 μM 4 to MDA-MB-231 cells treated with JMS-053),accumulation of spliced Xbp1 transcription factor [2],expression of pro-apoptotic gene CHOP (DDIT3) [2]
O=C(CC12CC3CC(CC(C3)C1)C2)NCCCCO [Compound 4],negligible inhibitory effects on cell growth,failed to detect any changes in viability,–,–
N=C1C(=O)NC(=O)c2cc(-c3ccc(OCCCCNC(=O)CC45CC6CC(CC(C6)C4)C5)cc3)sc21 [Compound 7a],–,–,moderate accumulation,strongly enhanced expression
O=C(CC12CC3CC(CC(C3)C1)C2)NCCCCOc1ccc(-c2cc3c(s2)C(=O)C(=O)NC3=O)cc1 [Compound 7b],–,–,significantly lower accumulation,–
